Data: patent publication US6569878B1, “Substituted 4-amino-thiazol-2-yl compounds as cyclin-dependent kinase inhibitors” (Agouron Pharmaceuticals Inc., priority 1997, dated 2003)
Like-named read-outs stand apart in the source and are kept apart here.

Key:
CDK2/cyclin A = molecular target: T1, CDK2/cyclin A (Homo sapiens, UniProt P24941); assay: Inhibition of CDK2/cyclin A retinoblastoma kinase activity; format: biochemical; settings: read-out: Ki CDK 2/A
T1 construct: made in house; host or cells: CDK2: insect cells (baculovirus); cyclin A: E. coli, then limited proteolysis
Procedure: Cyclin-dependent kinase activity was measured by quantifying the enzyme-catalyzed, time-dependent incorporation of radioactive phosphate from [^32P]ATP or [^33P]ATP into a protein substrate. Unless noted otherwise, assays were performed in 96-well plates in a total volume of 50 μL, in the presence of 10 mM HEPES (N-[2-hydroxyethyl]piperazine-N′-[2-ethanesulfonic acid]) (pH 7.4), 10 mM MgCl2, 25 μM adenosine triphosphate (ATP), 1 mg/mL ovalbumin, 5 μg/mL leupeptin, 1 mM dithiothreitol, 10 mM β-glycerophosphate, 0.1 mM sodium vanadate, 1 mM sodium fluoride, 2.5 mM ethylene glycol-bis(β-aminoethyl ether)-N,N,N′N′-tetraacetic acid (EGTA), 2% (v/v) dimethylsulfoxide, and 0.03-0.4 μCi [^32/33P]ATP per reaction. Reactions were initiated with enzyme, incubated at 30° C., and terminated after 20 minutes by the addition of ethylenediaminetetraacetic acid (EDTA) to 250 mM. The phosphorylated substrate was then captured on a nitrocellulose or phosphocellulose membrane using a 96-well filtration manifold, and unincorporated radioactivity was removed by repeated washing with 0.85% phosphoric acid. Radioactivity was quantified by exposing the dried membranes to a phosphorimager.
(§1) Apparent Ki values were measured by assaying enzyme activity in the presence of different inhibitor compound concentrations and subtracting the background radioactivity measured in the absence of enzyme. The kinetic parameters (kcat, Km for ATP) were measured for each enzyme under the usual assay conditions by determining the dependence of initial rates on ATP concentration. Inhibition data were fit to an equation for competitive inhibition using Kaleidagraph (Synergy Software), or were fit to an equation for competitive tight-binding inhibition using the software KineTic (BioKin, Ltd.).
CDK2 was purified using published methodology (Rosenblatt et al., “Purification and Crystallization of Human Cyclin-dependent Kinase 2,” J. Mol. Biol., vol. 230, 1993, pp. 1317-1319) from insect cells that had been infected with a baculovirus expression vector. […] Purified, proteolyzed cyclin A was included in the assay at a three- to five-fold molar excess to CDK2. Alternatively, a complex of CDK2 and proteolyzed cyclin A was prepared and purified by gel filtration. The substrate for this assay was the same Rb substrate fragment used for the CDK4 assays, and the methodology of the CDK2/cyclin A and the CDK4/cyclin D3 assays was essentially the same, except that CDK2 was present at 150 nM or 5 nM. Ki values were measured as described above.

[1] = molecular target: T2, complex of human CDK4 and cyclin D3 (Homo sapiens, UniProt P11802); assay: Inhibition of CDK4/cyclin D retinoblastoma kinase activity (D-type cyclin is D3); format: biochemical; settings: superscript a: D-type cyclin is D3; apparent Ki; read-out: Ki CDK 4/D
T2 construct: made in house; host or cells: insect cells, co-infected with baculovirus
T2 sequence (P11802 whole entry): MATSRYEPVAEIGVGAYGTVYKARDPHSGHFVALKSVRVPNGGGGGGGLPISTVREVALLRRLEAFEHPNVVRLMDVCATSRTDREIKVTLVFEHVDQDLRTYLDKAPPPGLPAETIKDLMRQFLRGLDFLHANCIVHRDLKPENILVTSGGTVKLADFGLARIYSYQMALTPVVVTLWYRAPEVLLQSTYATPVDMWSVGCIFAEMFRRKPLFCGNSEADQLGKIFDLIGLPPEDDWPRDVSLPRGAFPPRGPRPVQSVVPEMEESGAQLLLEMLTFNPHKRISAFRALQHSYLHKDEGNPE
T2 sequence (P30281 whole entry partner): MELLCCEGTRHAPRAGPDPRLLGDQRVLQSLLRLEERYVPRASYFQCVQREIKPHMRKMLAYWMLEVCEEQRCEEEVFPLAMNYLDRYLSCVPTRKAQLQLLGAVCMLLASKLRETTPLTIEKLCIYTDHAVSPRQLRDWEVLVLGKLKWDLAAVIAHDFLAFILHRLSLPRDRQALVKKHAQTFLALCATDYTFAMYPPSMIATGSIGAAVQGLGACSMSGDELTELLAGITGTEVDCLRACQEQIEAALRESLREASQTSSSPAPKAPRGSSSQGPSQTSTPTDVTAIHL
Procedure: Cyclin-dependent kinase activity was measured by quantifying the enzyme-catalyzed, time-dependent incorporation of radioactive phosphate from [^32P]ATP or [^33P]ATP into a protein substrate. […] Reactions were initiated with enzyme, incubated at 30° C., and terminated after 20 minutes by the addition of ethylenediaminetetraacetic acid (EDTA) to 250 mM. […] Radioactivity was quantified by exposing the dried membranes to a phosphorimager.
as §1
Phosphorylated Rb substrate was captured by microfiltration on a nitrocellulose membrane and quantified using a phosphorimager as described above. For measurement of tight-binding inhibitors, the enzyme complex concentration was lowered to 5 nM, and the assay duration was extended to 60 minutes, during which the time-dependence of product formation was linear.

Row | Compound | Ki (CDK2/cyclin A) [µM] | Ki [1] [µM] | Ki (CDK2/cyclin A; μM) [µM]
1 | CC(C)(C)OC(=O)N1CCN(c2ccc(Nc3nc(N)c(C(=O)c4c(Cl)cccc4Cl)s3)cc2)CC1 [C(105), 4-Amino-2-[4-(1-tert-butoxycarbonyl-piperazine-4-yl)-phenylamino]-thiazol-5-yl-(2,6-dichlorophenyl)-methanone] | 1.06 | 0.06 | –
2 | Nc1ccc(Cl)c(C(=O)c2sc(Nc3ccc4nc[nH]c4c3)nc2N)c1Cl [G, [4-Amino-2-(1H-benzoimidazol-6-ylamino)-thiazol-5-yl]-(3-amino-2,6-dichloro-phenyl)-methanone] | 0.178 | 0.023 | –
3 | Nc1nc(Nc2ccc(N3CCOCC3)cc2)sc1C(=O)c1c(Cl)ccc([N+](=O)[O-])c1Cl [C(75), [4-Amino-2-(4-morpholin-4-yl-phenylamino)-thiazol-5-yl]-(2,6-dichloro-3-nitro-phenyl)-methanone] | 1.08 | 0.023 | –
4 | Cc1cccc(-c2ccccc2)c1C(=O)c1sc(Nc2ccc(N3CCOCC3)cc2)nc1N [C(83), [4-Amino-2-(4-morpholin-4-yl-phenylamino)-thiazol-5-yl]-(3-methyl-biphenyl-2-yl)-methanone] | – | 1.8 | 32
5 | Cc1cc(C(=O)c2sc(Nc3ccc(N4CCN(C)CC4)cc3)nc2N)c(C)s1 [C(90), {4-Amino-2-[4-(4-methyl-piperazin-1-yl)-phenylamino]-thiazol-5-yl}-(2,5-dimethyl-thiophen-3-yl)-methanone] | 0.771 | 0.027 | –
6 | COc1ccc(C(=O)c2sc(Nc3ccc(S(N)(=O)=O)cc3)nc2N)c(OC)c1 [C(33), 4-[4-Amino-5-(2,4-dimethoxy-benzoyl)-thiazol-2-ylamino]-benzenesulfonamide] | 0.02 | 0.057 | –
7 | Cc1cc([N+](=O)[O-])sc1C(=O)c1sc(Nc2ccc3nc[nH]c3c2)nc1N [C(78), [4-Amino-2-(1H-benzoimidazol-6-ylamino)-thiazol-5-yl]-(3-methyl-5-nitro-thiophen-2-yl)-methanone] | 0.083 | 0.032 | –
8 | Cc1cccc(C)c1C(=O)c1sc(Nc2ccc(N3CCOCC3)cc2)nc1N [C(62), [4-Amino-2-(4-morpholin-4-yl-phenylamino)-thiazol-5-yl]-(2,6-dimethyl-phenyl)-methanone] | 1.71 | 0.072 | –
9 | CN(CC(=O)OC(C)(C)C)c1ccc(Nc2nc(N)c(C(=O)c3c(F)cccc3F)s2)cc1 [C(103), tert-Butyl({4-[4-Amino-5-(2,6-difluoro-benzoyl)-thiazol-2-ylamino]-phenyl}-methyl-amino)-acetate] | 0.595 | 0.11 | –
10 | COc1ccc(C(=O)c2sc(Nc3ccc(N(C)C)cc3)nc2N)cc1 [C(3), [4-Amino-2-(4-dimethylamino-phenylamino)-thiazol-5-yl]-(4-methoxy-phenyl)-methanone] | 4.7 | 1.2 | –
11 | Cc1cccc(Br)c1C(=O)c1sc(Nc2ccc3nc[nH]c3c2)nc1N [C(66), [4-Amino-2-(1H-benzoimidazol-6-ylamino)-thiazol-5-yl]-(2-bromo-6-methyl-phenyl)-methanone] | 0.574 | 0.053 | –
12 | Cc1c(C(=O)c2sc(Nc3ccc4nc[nH]c4c3)nc2N)ncn1C [C(74), [4-Amino-2-(1H-benzoimidazol-6-ylamino)-thiazol2-5-yl]-(1,5-dimethyl-1H-imidazol-4-yl)-methanone] | – | 4.8 | 10.6
13 | Nc1nc(Nc2ccc(C(=O)O)cc2)sc1C(=O)c1c(Cl)cccc1Cl [I(25)] | 0.28 | 0.639 | –
14 | Cc1ccc(C(=O)c2sc(Nc3ccc(N4CCOCC4)cc3)nc2N)c(C)c1 [C(54), [4-Amino-2-(4-morpholin-4-yl-phenylamino)-thiazol-5-yl]-(2,4-dimethyl-phenyl)-methanone] | 0.453 | 0.034 | –
15 | Nc1nc(Nc2ccc(S(N)(=O)=O)cc2)sc1C(=O)c1ccc2c(c1)CCC(=O)N2 [C(51), 4-[4-Amino-5-(2-oxo-1,2,3,4-tetrahydro-quinoline-6-carbonyl)-thiazol-2-ylamino]-benzenesulfonamide] | 0.0333 | 0.085 | –
16 | Cc1cccc(Br)c1C(=O)c1sc(Nc2ccc(N3CCOCC3)cc2)nc1N [C(84), [4-Amino-2-(4-morpholin-4-yl-phenylamino)-thiazol-5-yl]-(2-bromo-6-methyl-phenyl)-methanone] | 1.04 | 0.053 | –
17 | CCOC(=O)CC(C)Nc1nc(N)c(C(=O)c2sccc2C)s1 (racemic) [C(46), Ethyl 3RS-[4-Amino-5-(3-methyl-thiophene-2-carbonyl)-thiazol-2-ylamino]-butyrate] | 1.79 | 0.244 | –
18 | Nc1nc(Nc2ccc(S(N)(=O)=O)cc2)sc1C(=O)c1cc(Cl)sc1Cl [C(92), 4-[4-Amino-5-(2,5-dichloro-thiophene-3-carbonyl)-thiazol-2-ylamino]-benzenesulfonamide] | 0.0094 | 0.063 | –
19 | Cc1ccsc1C(=O)c1sc(Nc2ccc(-n3ccnc3)cc2)nc1N [C(42), [4-Amino-2-(4-imidazol-1-yl-phenylamino)-thiazol-5-yl]-(3-methyl-thiophen-2-yl)-methanone] | 0.207 | 0.75 | –
20 | Cc1ccc(C(=O)c2sc(Nc3ccccc3)nc2N)cc1 [I(12)] | 4.17 | 0.38 | –
21 | Cc1ccsc1C(=O)c1sc(Nc2ccc(N3CCN(C(=O)OC(C)(C)C)CC3)cc2)nc1N [C(104), 4-Amino-2-[4-(1-tert-butoxycarbonyl-piperazine-4-yl)-phenylamino]-thiazol-5-yl-(3-methyl-thiophen-2-yl)-methanone] | 0.73 | 0.19 | –
22 | Nc1nc(Nc2ccc3nc[nH]c3c2)sc1C(=O)c1sc(Br)cc1Br [C(72), [4-Amino-2-(1H-benzoimidazol-6-ylamino)-thiazol-5-yl]-(3,5-dibromo-thiophen-2-yl)-methanone] | 0.169 | 0.0135 | –
23 | Nc1nc(Nc2ccc3nc[nH]c3c2)sc1C(=O)c1c(Cl)ccc([N+](=O)[O-])c1Cl [C(89), [4-Amino-2-(1H-benzoimidazol-6-ylamino)-thiazol-5-yl]-(2,6-dichloro-3-nitro-phenyl)-methanone] | 0.326 | 0.055 | –
24 | CC(=O)Nc1ccc(Cl)c(C(=O)c2sc(Nc3ccc(N4CCN(C(=O)OC(C)(C)C)CC4)cc3)nc2N)c1Cl [C(106)] | 1.46 | 0.134 | –
25 | Cc1cccc([N+](=O)[O-])c1C(=O)c1sc(Nc2ccc3nc[nH]c3c2)nc1N [C(61), [4-Amino-2-(1H-benzoimidazol-6-ylamino)-thiazol-5-yl]-(2-methyl-6-nitro-phenyl)-methanone] | 1.2 | 0.12 | –
26 | Nc1nc(Nc2ccc(S(N)(=O)=O)cc2)sc1C(=O)[C@@H]1CCCN1C(=O)OCc1ccccc1 [C(65), 2S-[4-Amino-2-(4-sulfamoyl-phenylamino)-thiazole-5-carbonyl]-N-carbobenzyloxy-pyrrolidine] | – | 38 | 14.3
27 | Cc1cccc(C)c1C(=O)c1sc(Nc2ccc3nc[nH]c3c2)nc1N [C(60), [4-Amino-2-(1H-benzoimidazol-6-ylamino)-thiazol-5-yl]-(2,6-dimethyl-phenyl)-methanone] | 0.574 | 0.056 | –
28 | Cc1cncc(C)c1C(=O)c1sc(Nc2ccc(S(N)(=O)=O)cc2)nc1N [C(59), [4-Amino-2-(4-sulfamoyl-phenylamino)-thiazol-5-yl]-(3,5-dimethyl-pyridin-4-yl)-methanone] | 0.135 | 0.1 | –
29 | Nc1nc(Nc2ccc3nc[nH]c3c2)sc1C(=O)[C@@H]1CCCN1C(=O)OCc1ccccc1 [C(64), 2S-[4-Amino-2-(1H-benzoimidazol-5-yl-amino)-thiazole-5-carbonyl]-N-carbobenzyloxy-pyrrolidine] | – | 44 | 42
30 | Nc1nc(Nc2ccc3nc[nH]c3c2)sc1C(=O)c1c(F)cccc1F [C(79), [4-Amino-2-(1H-benzoimidazol-6-ylamino)-thiazol-5-yl]-(2,6-difluoro-phenyl)-methanone] | 0.162 | 0.054 | –
